Target: EGFR (human) (UniProt P00533)
Assay: Assessment of EGFR Kinase Activity

Chain of EGFR (human) (P00533 whole entry, looked up): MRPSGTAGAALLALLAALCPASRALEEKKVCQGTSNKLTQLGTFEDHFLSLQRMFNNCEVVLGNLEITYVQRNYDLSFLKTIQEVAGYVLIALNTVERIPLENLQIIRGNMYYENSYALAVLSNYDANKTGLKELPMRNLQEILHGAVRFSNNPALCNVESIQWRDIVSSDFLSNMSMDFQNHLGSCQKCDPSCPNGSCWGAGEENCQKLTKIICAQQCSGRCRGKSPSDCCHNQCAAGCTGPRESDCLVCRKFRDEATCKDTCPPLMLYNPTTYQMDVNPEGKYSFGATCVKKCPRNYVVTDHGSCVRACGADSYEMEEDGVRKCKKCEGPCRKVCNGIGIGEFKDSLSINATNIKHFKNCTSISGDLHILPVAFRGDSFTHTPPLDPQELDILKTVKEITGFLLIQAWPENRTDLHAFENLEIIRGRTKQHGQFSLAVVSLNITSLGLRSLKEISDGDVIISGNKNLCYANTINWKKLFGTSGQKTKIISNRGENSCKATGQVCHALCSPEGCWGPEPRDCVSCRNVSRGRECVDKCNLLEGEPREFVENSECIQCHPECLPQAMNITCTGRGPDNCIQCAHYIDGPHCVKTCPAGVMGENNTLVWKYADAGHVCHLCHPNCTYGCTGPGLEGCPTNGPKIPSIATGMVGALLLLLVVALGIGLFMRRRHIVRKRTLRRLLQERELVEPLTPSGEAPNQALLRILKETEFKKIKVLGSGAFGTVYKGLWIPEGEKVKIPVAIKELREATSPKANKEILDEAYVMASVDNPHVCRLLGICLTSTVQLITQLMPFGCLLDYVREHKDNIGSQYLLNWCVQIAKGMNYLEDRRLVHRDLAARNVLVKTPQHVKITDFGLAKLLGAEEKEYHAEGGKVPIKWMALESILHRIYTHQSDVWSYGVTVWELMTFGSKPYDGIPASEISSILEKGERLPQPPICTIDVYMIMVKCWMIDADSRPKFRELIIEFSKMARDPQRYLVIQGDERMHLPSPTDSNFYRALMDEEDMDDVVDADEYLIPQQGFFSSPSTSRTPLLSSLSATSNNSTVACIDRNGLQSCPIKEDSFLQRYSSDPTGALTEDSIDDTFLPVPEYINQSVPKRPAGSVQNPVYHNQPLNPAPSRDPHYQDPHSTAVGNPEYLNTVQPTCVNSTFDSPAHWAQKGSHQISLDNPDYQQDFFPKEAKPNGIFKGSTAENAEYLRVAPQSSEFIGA

`C[C@@H](Nc1ncnc2ccc(-c3ccc(CN4CCP(C)(=O)CC4)o3)cc12)c1ccccc1` and `CP1(=O)CCN(Cc2ccc(-c3ccc4ncnc(Nc5cccc(Cl)c5F)c4c3)o2)CC1` cannot be ordered by IC50: less than 100 nM for the first, less than 100 nM for the second.

`CP(C)(=O)CCN(CCO)Cc1ccc(-c2ccc3ncnc(Nc4ccc5c(cnn5Cc5cccc(F)c5)c4)c3c2)o1` and `CCN(CCP(C)(C)=O)Cc1ccc(-c2ccc3ncnc(Nc4ccc5c(cnn5Cc5cccc(F)c5)c4)c3c2)o1` cannot be ordered by IC50: less than 100 nM for the first, less than 100 nM for the second.

`C#Cc1cc(Nc2ncnc3ccc(-c4ccc(CN5CCP(C)(=O)CC5)o4)cc23)ccc1OCc1cccc(F)c1` and `CP1(=O)CCN(Cc2ccc(-c3ccc4ncnc(Nc5ccc(OCc6cccc(F)c6)c(Cl)c5)c4c3)o2)CC1` cannot be ordered by IC50: less than 100 nM for the first, less than 100 nM for the second.

`CP1(=O)CCN(Cc2ccc(-c3ccc4ncnc(Nc5ccc(OCc6cccc(F)c6)c(Br)c5)c4c3)o2)CC1` and `CCOP1(=O)CCN(Cc2ccc(-c3ccc4ncnc(Nc5ccc(OCc6cccc(F)c6)c(Cl)c5)c4c3)o2)CC1` cannot be ordered by IC50: less than 100 nM for the first, less than 100 nM for the second.

`CP(C)(=O)CN1CCN(Cc2ccc(-c3ccc4ncnc(Nc5ccc(OCc6cccc(F)c6)c(Cl)c5)c4c3)o2)CC1` and `CP(C)(=O)CNCc1ccc(-c2ccc3ncnc(Nc4ccc(OCc5cccc(F)c5)c(Cl)c4)c3c2)o1` cannot be ordered by IC50: less than 100 nM for the first, less than 100 nM for the second.

`COP(=O)(CCNCc1ccc(-c2ccc3ncnc(Nc4ccc(OCc5cccc(F)c5)c(Cl)c4)c3c2)o1)OC` and `CP(C)(=O)CCNCc1ccc(-c2ccc3ncnc(Nc4ccc(OCc5cccc(F)c5)c(Cl)c4)c3c2)o1` cannot be ordered by IC50: less than 100 nM for the first, less than 100 nM for the second.

`CP1(=O)CCN(Cc2ccc(-c3ccc4ncnc(Nc5ccc6c(cnn6Cc6cccc(F)c6)c5)c4c3)o2)CC1` and `CP1(=O)CCN(CC#Cc2ccc3ncnc(Nc4ccc5c(cnn5Cc5cccc(F)c5)c4)c3c2)CC1` cannot be ordered by IC50: less than 100 nM for the first, less than 100 nM for the second.

First: CP1(=O)CCN(Cc2ccc(-c3ccc4ncnc(Nc5ccc(Br)c(Cl)c5F)c4c3)o2)CC1
Second: CP1(=O)CCN(Cc2ccc(-c3ccc4ncnc(Nc5ccc(Br)cc5F)c4c3)o2)CC1
The IC50 of the first is lower: less than 100 nM for the first, 100 to 1000 nM for the second. The first is the more potent here.

`CP1(=O)CCN(Cc2ccc(-c3ccc4ncnc(Nc5ccc(OCc6cccc[n+]6[O-])c(Cl)c5)c4c3)o2)CC1` and `Cc1cccc(COc2ccc(Nc3ncnc4ccc(-c5ccc(CN6CCP(C)(=O)CC6)o5)cc34)cc2Cl)[n+]1[O-]` cannot be ordered by IC50: less than 100 nM for the first, less than 100 nM for the second.

`CC1(C)COP(=O)(CCNCc2ccc(-c3ccc4ncnc(Nc5ccc(OCc6cccc(F)c6)c(Cl)c5)c4c3)o2)OC1` and `CP(C)(=O)CCNCc1ccc(-c2ccc3ncnc(Nc4ccc5c(cnn5Cc5cccc(F)c5)c4)c3c2)o1` cannot be ordered by IC50: less than 100 nM for the first, less than 100 nM for the second.

`CP1(=O)CCN(C/C=C/c2ccc3ncnc(Nc4ccc(OCc5cccc(F)c5)c(Cl)c4)c3c2)CC1` and `CP1(=O)CCN(CC#Cc2ccc3ncnc(Nc4ccc(OCc5cccc(F)c5)c(Cl)c4)c3c2)CC1` cannot be ordered by IC50: less than 100 nM for the first, less than 100 nM for the second.

`CP(C)(=O)CCNCC#Cc1ccc2ncnc(Nc3ccc(OCc4cccc(F)c4)c(Cl)c3)c2c1` and `CP1(=O)CCN(CCCc2ccc3ncnc(Nc4ccc(OCc5cccc(F)c5)c(Cl)c4)c3c2)CC1` cannot be ordered by IC50: less than 100 nM for the first, less than 100 nM for the second.

`CP1(=O)CCN(Cc2ccc(-c3ccc4ncnc(Nc5ccc(OCc6cnccn6)c(Cl)c5)c4c3)o2)CC1` and `CP1(=O)CCN(Cc2ccc(-c3ccc4ncnc(Nc5ccc(OCc6ccccn6)c(Cl)c5)c4c3)o2)CC1` cannot be ordered by IC50: less than 100 nM for the first, less than 100 nM for the second.

Compared with `Cc1ccc(Oc2ccc(Nc3ncnc4ccc(-c5ccc(CN6CCP(C)(=O)CC6)o5)cc34)cc2C)cn1`, `Cc1cccc(COc2ccc(Nc3ncnc4ccc(-c5ccc(CN6CCP(C)(=O)CC6)o5)cc34)cc2Cl)n1` is higher in IC50: less than 100 nM for the first, 100 to 1000 nM for the second. The first is the more potent here.

— the Kinase Knowledgebase extract (Sharma et al. 2016)
